# Test results: ChEMBL document CHEMBL1201862, “PubChem BioAssay data set” (2004)
#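 48-hour exposure; five concentrations; linearly interpolated endpoints. Abbreviation: GI50, concentration required for 50% inhibition of growth.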 Active and inactive are the calls of the source. No stated cut-off is given here; in the data, active = GI50 up to about 1.1 µM and inactive = higher.
# Tests used:
# Test in all cases: inhibition of tumour cell growth, NCI panel, 48 h
# [1] = system: EKVX
# [2] = system: HL-60
# [3] = system: HOP-92
# [4] = system: MDA-N
# [5] = system: NCI-H23
# [6] = system: NCI-H522
# [7] = system: OVCAR-4
# [8] = system: OVCAR-8
# [9] = system: RXF 393
# [10] = system: SN12C
# [11] = system: SNB-19
# [12] = system: SW-620
# [13] = system: T47D
# [14] = system: UO-31
# [15] = system: COLO 205
# [16] = system: SK-OV-3
# [17] = system: CCRF-CEM
Structure (SMILES),GI50 [1],GI50 [2],GI50 [3],GI50 [4],GI50 [5],GI50 [6],GI50 [7],GI50 [8],GI50 [9],GI50 [10],GI50 [11],GI50 [12],GI50 [13],GI50 [14],GI50 [15],GI50 [16],GI50 [17]
O=[As](O)(O)c1ccc(/N=N/c2ccc([As](=O)(O)O)cc2)cc1,> 100 µM (inactive),> 100 µM (inactive),> 100 µM (inactive),> 100 µM (inactive),> 100 µM (inactive),> 100 µM (inactive),> 100 µM (inactive),> 100 µM (inactive),> 100 µM (inactive),> 100 µM (inactive),> 100 µM (inactive),> 100 µM (inactive),> 100 µM (inactive),> 100 µM (inactive),,,
C=C1[C@H](OCC(C)C)[C@@H](OCC(C)C)[C@@H](O)C(C)(C)/C=C/[C@H](C)C(=O)[C@@]2(O)C[C@H](C)[C@H](O)[C@@H]2[C@H]1OCC(C)C,,,> 7.5 µM (inactive),1.54 µM (inactive),> 7.5 µM (inactive),> 7.5 µM (inactive),> 7.5 µM (inactive),> 7.5 µM (inactive),> 7.5 µM (inactive),> 7.5 µM (inactive),> 7.5 µM (inactive),7.38 µM (inactive),> 7.5 µM (inactive),6.52 µM (inactive),2.13 µM (inactive),> 7.5 µM (inactive),
Cc1ccc(-c2cnc(NC3OC(COC(=O)c4ccccc4)C(OC(=O)c4ccccc4)C(OC(=O)c4ccccc4)C3OC(=O)c3ccccc3)s2)cc1 (configuration not stated),> 100 µM (inactive),,20.4 µM (inactive),> 100 µM (inactive),> 100 µM (inactive),> 100 µM (inactive),68.1 µM (inactive),> 100 µM (inactive),> 100 µM (inactive),> 100 µM (inactive),> 100 µM (inactive),> 100 µM (inactive),> 100 µM (inactive),> 100 µM (inactive),> 100 µM (inactive),> 100 µM (inactive),
COC(=O)[C@@H]1[C@@H](c2cccc(Cl)c2)[C@H](C(=O)OC)C2(C[C@@]1(C)O)NCCS2 (some centres not stated),> 100 µM (inactive),,73.6 µM (inactive),86.1 µM (inactive),22.3 µM (inactive),24.2 µM (inactive),46.7 µM (inactive),86.5 µM (inactive),49.4 µM (inactive),47.9 µM (inactive),83.9 µM (inactive),36.6 µM (inactive),29.6 µM (inactive),> 100 µM (inactive),81.1 µM (inactive),> 100 µM (inactive),0.684 µM (active)
CCCCC(=O)Oc1ccc2c(C)cc(=O)oc2c1,> 100 µM (inactive),> 100 µM (inactive),26.2 µM (inactive),> 100 µM (inactive),> 100 µM (inactive),> 100 µM (inactive),> 100 µM (inactive),> 100 µM (inactive),> 100 µM (inactive),> 100 µM (inactive),> 100 µM (inactive),> 100 µM (inactive),> 100 µM (inactive),> 100 µM (inactive),> 100 µM (inactive),,> 100 µM (inactive)
O=C(n1c(=O)n(-c2ccc(Cl)cc2)c(=O)n1C(=O)C(Cl)(Cl)Cl)C(Cl)(Cl)Cl,> 100 µM (inactive),> 100 µM (inactive),> 100 µM (inactive),> 100 µM (inactive),> 100 µM (inactive),> 100 µM (inactive),> 100 µM (inactive),> 100 µM (inactive),,> 100 µM (inactive),> 100 µM (inactive),> 100 µM (inactive),> 100 µM (inactive),31 µM (inactive),> 100 µM (inactive),> 100 µM (inactive),> 100 µM (inactive)
C=CCOC1OC(CO[Si](C)(C)C(C)(C)C)C(OCc2ccccc2)C(OCc2ccccc2)C1OCc1ccccc1 (configuration not stated),> 100 µM (inactive),> 100 µM (inactive),38.5 µM (inactive),> 100 µM (inactive),> 100 µM (inactive),34 µM (inactive),39 µM (inactive),37.5 µM (inactive),,71.8 µM (inactive),26.2 µM (inactive),> 100 µM (inactive),35.6 µM (inactive),46.1 µM (inactive),> 100 µM (inactive),> 100 µM (inactive),> 100 µM (inactive)
COC(=O)[C@@H](NC(=O)N(CCC#N)CCCN(C(=O)N[C@H](Cc1ccccc1)C(=O)OC)c1ccccc1)C(C)C,> 100 µM (inactive),,29.9 µM (inactive),95.3 µM (inactive),> 100 µM (inactive),40.4 µM (inactive),50.4 µM (inactive),> 100 µM (inactive),95.9 µM (inactive),> 100 µM (inactive),> 100 µM (inactive),> 100 µM (inactive),36.8 µM (inactive),97.5 µM (inactive),> 100 µM (inactive),> 100 µM (inactive),85.1 µM (inactive)
CC[C@H](C)[C@H]1NC(=O)[C@@H](NC(=O)[C@@H](CC(C)C)N(C)C(=O)C2CCCN2C(=O)[C@H](C)O)[C@@H](C)OC(=O)[C@@H]2Cc3ccccc3CN2C(=O)[C@@H]2CCCN2C(=O)[C@H](CC(C)C)NC(=O)[C@@H](C)C(=O)[C@H](C(C)C)OC(=O)C[C@@H]1O (some centres not stated),2.52 µM (inactive),,1.58 µM (inactive),0.388 µM (active),,0.443 µM (active),0.641 µM (active),1.1 µM (active),0.802 µM (active),0.271 µM (active),0.207 µM (active),0.555 µM (active),0.323 µM (active),,0.269 µM (active),0.547 µM (active),0.106 µM (active)
CC1(C)NC(C(=O)c2ccccc2)=[N+]([O-])C1(O)c1ccccc1 (configuration not stated),> 100 µM (inactive),> 100 µM (inactive),> 100 µM (inactive),> 100 µM (inactive),> 100 µM (inactive),,> 100 µM (inactive),> 100 µM (inactive),> 100 µM (inactive),> 100 µM (inactive),> 100 µM (inactive),> 100 µM (inactive),> 100 µM (inactive),69.8 µM (inactive),> 100 µM (inactive),> 100 µM (inactive),> 100 µM (inactive)
CCOC(=O)CCC(NC(=O)c1ccc(N2CCN(c3c(C)nc(N)nc3N)CC2)cc1)C(=O)OCC (configuration not stated),> 78.2 µM (inactive),,48.6 µM (inactive),12.9 µM (inactive),0.169 µM (active),11 µM (inactive),> 100 µM (inactive),0.452 µM (active),,> 22.5 µM (inactive),0.514 µM (active),,> 88.9 µM (inactive),> 100 µM (inactive),> 64.1 µM (inactive),> 100 µM (inactive),0.109 µM (active)
COc1ccccc1NC(=S)NNC(=O)c1cc(-c2ccccc2)nc2ccccc12,,,12.8 µM (inactive),3.35 µM (inactive),13.9 µM (inactive),12.9 µM (inactive),14.7 µM (inactive),18 µM (inactive),3.27 µM (inactive),14.7 µM (inactive),24.5 µM (inactive),7.76 µM (inactive),15.9 µM (inactive),11 µM (inactive),11.8 µM (inactive),16.9 µM (inactive),2.08 µM (inactive)
